Measured values published in ChEMBL document CHEMBL1201862, “PubChem BioAssay data set” (2004).
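All cell lines were grown in 96-well plates and treated with compound for 48 hours. GI50 is the concentration that inhibits growth by half.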 Activity calls are given as the source filed them. No stated cut-off is given here; in the data, active = GI50 up to about 1.1 µM and inactive = higher.

Assays:
Assay in all cases: DTP human tumour cell line panel, 48 h
EKVX = tested on: EKVX
UO-31 = tested on: UO-31
M19-MEL = tested on: M19-MEL
OVCAR-4 = tested on: OVCAR-4
DLD-1 = tested on: DLD-1
ACHN = tested on: ACHN
CCRF-CEM = tested on: CCRF-CEM
CAKI-1 = tested on: CAKI-1
RXF 631 = tested on: RXF 631
A498 = tested on: A498
SK-MEL-2 = tested on: SK-MEL-2
SF-295 = tested on: SF-295
LXFL 529 = tested on: LXFL 529
SNB-19 = tested on: SNB-19
SW-620 = tested on: SW-620
SK-OV-3 = tested on: SK-OV-3
SN12C = tested on: SN12C
SNB-75 = tested on: SNB-75
HCT-15 = tested on: HCT-15
Malme-3M = tested on: Malme-3M
MOLT-4 = tested on: MOLT-4
786-0 = tested on: 786-0
DMS-273 = tested on: DMS-273
UACC-257 = tested on: UACC-257
KM-20L2 = tested on: KM-20L2
HOP-62 = tested on: HOP-62
A549 = tested on: A549
HCT-116 = tested on: HCT-116
SK-MEL-5 = tested on: SK-MEL-5
NCI-H522 = tested on: NCI-H522
HL-60 = tested on: HL-60
RXF 393 = tested on: RXF 393
OVCAR-8 = tested on: OVCAR-8
SNB-78 = tested on: SNB-78
HT-29 = tested on: HT-29
OVCAR-3 = tested on: OVCAR-3
M14 = tested on: M14
K562 = tested on: K562
NCI-H460 = tested on: NCI-H460
SK-MEL-28 = tested on: SK-MEL-28
NCI-H23 = tested on: NCI-H23
SF-539 = tested on: SF-539
HCC 2998 = tested on: HCC 2998
KM12 = tested on: KM12
RPMI-8226 = tested on: RPMI-8226
SF-268 = tested on: SF-268
UACC-62 = tested on: UACC-62
HOP-18 = tested on: HOP-18
COLO 205 = tested on: COLO 205
IGROV-1 = tested on: IGROV-1
DMS-114 = tested on: DMS-114
XF498 = tested on: XF498
TK-10 = tested on: TK-10
U-251 = tested on: U-251
HOP-92 = tested on: HOP-92
OVCAR-5 = tested on: OVCAR-5
LOX IMVI = tested on: LOX IMVI
NCI-H226 = tested on: NCI-H226
SR = tested on: SR

## O/N=C1/C(=C/c2ccc(F)cc2)CCCC1C(NO)c1ccc(F)cc1 (stereo unspecified)
EKVX
  GI50: 38.9 µM (inactive)
UO-31
  GI50: 25.6 µM (inactive)
M19-MEL
  GI50: 38.3 µM (inactive)
OVCAR-4
  GI50: 31.5 µM (inactive)
DLD-1
  GI50: 65.2 µM (inactive)
ACHN
  GI50: > 100 µM (inactive)
CCRF-CEM
  GI50: 33.2 µM (inactive)
CAKI-1
  GI50: 62.7 µM (inactive)
RXF 631
  GI50: 33 µM (inactive)
A498
  GI50: > 100 µM (inactive)
SK-MEL-2
  GI50: 34.6 µM (inactive)
SF-295
  GI50: 41 µM (inactive)
LXFL 529
  GI50: 38.4 µM (inactive)
SNB-19
  GI50: 52.4 µM (inactive)
SW-620
  GI50: 51.9 µM (inactive)
SK-OV-3
  GI50: > 100 µM (inactive)
SN12C
  GI50: 20.8 µM (inactive)
SNB-75
  GI50: 50.1 µM (inactive)
HCT-15
  GI50: 38 µM
Malme-3M
  GI50: 26.7 µM (inactive)
MOLT-4
  GI50: 22.3 µM (inactive)
786-0
  GI50: 76.2 µM (inactive)
DMS-273
  GI50: 40.6 µM (inactive)
UACC-257
  GI50: 25.4 µM (inactive)
KM-20L2
  GI50: 28.8 µM (inactive)
HOP-62
  GI50: > 100 µM (inactive)
A549
  GI50: 32.9 µM (inactive)
HCT-116
  GI50: 30 µM (inactive)
SK-MEL-5
  GI50: 19 µM (inactive)
NCI-H522
  GI50: 17.5 µM (inactive)
HL-60
  GI50: 25.1 µM (inactive)
RXF 393
  GI50: 21.3 µM (inactive)
OVCAR-8
  GI50: 35.8 µM (inactive)
SNB-78
  GI50: 67 µM (inactive)
HT-29
  GI50: 21.6 µM (inactive)
OVCAR-3
  GI50: 23.7 µM (inactive)
M14
  GI50: 32.8 µM (inactive)
K562
  GI50: 29.1 µM (inactive)
NCI-H460
  GI50: > 100 µM (inactive)
SK-MEL-28
  GI50: 25.8 µM (inactive)
NCI-H23
  GI50: 16.6 µM (inactive)
SF-539
  GI50: 42.2 µM (inactive)
HCC 2998
  GI50: 35.6 µM (inactive)
KM12
  GI50: 22.3 µM (inactive)
RPMI-8226
  GI50: 20.8 µM (inactive)
SF-268
  GI50: 23.2 µM (inactive)
UACC-62
  GI50: 34.4 µM (inactive)
HOP-18
  GI50: 21.1 µM (inactive)
COLO 205
  GI50: 33.5 µM (inactive)
IGROV-1
  GI50: 89.1 µM (inactive)
DMS-114
  GI50: 29.9 µM (inactive)
XF498
  GI50: 64 µM (inactive)
TK-10
  GI50: 71.4 µM (inactive)
U-251
  GI50: 46.8 µM (inactive)

## COC(=O)C1=C(C)N(NC(=O)c2ccccc2)C2(O)CCCC(=O)C12C (stereo unspecified)
HOP-92
  GI50: > 100 µM (inactive)
OVCAR-5
  GI50: > 100 µM (inactive)
UO-31
  GI50: > 100 µM (inactive)
OVCAR-4
  GI50: > 100 µM (inactive)
DLD-1
  GI50: > 100 µM (inactive)
ACHN
  GI50: > 100 µM (inactive)
CAKI-1
  GI50: > 100 µM (inactive)
RXF 631
  GI50: > 100 µM (inactive)
A498
  GI50: > 100 µM (inactive)
SK-MEL-2
  GI50: > 100 µM (inactive)
LOX IMVI
  GI50: > 100 µM (inactive)
SF-295
  GI50: > 100 µM (inactive)
LXFL 529
  GI50: > 100 µM (inactive)
SNB-19
  GI50: > 100 µM (inactive)
SW-620
  GI50: > 100 µM (inactive)
SK-OV-3
  GI50: > 100 µM (inactive)
NCI-H226
  GI50: 4.37 µM (inactive)
SN12C
  GI50: > 100 µM (inactive)
SNB-75
  GI50: 63.5 µM (inactive)
HCT-15
  GI50: > 100 µM
Malme-3M
  GI50: > 100 µM (inactive)
DMS-273
  GI50: > 100 µM (inactive)
UACC-257
  GI50: > 100 µM (inactive)
KM-20L2
  GI50: > 100 µM (inactive)
A549
  GI50: > 100 µM (inactive)
HCT-116
  GI50: > 100 µM (inactive)
SK-MEL-5
  GI50: > 100 µM (inactive)
NCI-H522
  GI50: > 100 µM (inactive)
RXF 393
  GI50: > 100 µM (inactive)
OVCAR-8
  GI50: > 100 µM (inactive)
SNB-78
  GI50: > 100 µM (inactive)
HT-29
  GI50: > 100 µM (inactive)
OVCAR-3
  GI50: > 100 µM (inactive)
M14
  GI50: > 100 µM (inactive)
SK-MEL-28
  GI50: > 100 µM (inactive)
NCI-H23
  GI50: > 100 µM (inactive)
SF-539
  GI50: > 100 µM (inactive)
KM12
  GI50: > 100 µM (inactive)
RPMI-8226
  GI50: > 100 µM (inactive)
UACC-62
  GI50: > 100 µM (inactive)
HOP-18
  GI50: < 0.01 µM (active)
COLO 205
  GI50: > 100 µM (inactive)
IGROV-1
  GI50: > 100 µM (inactive)
DMS-114
  GI50: > 100 µM (inactive)
XF498
  GI50: > 100 µM (inactive)
TK-10
  GI50: > 100 µM (inactive)
U-251
  GI50: > 100 µM (inactive)

## Cn1cnc([N+](=O)[O-])c1Sc1nccc(O)n1
EKVX
  GI50: > 100 µM (inactive)
HOP-92
  GI50: > 100 µM (inactive)
OVCAR-5
  GI50: > 100 µM (inactive)
UO-31
  GI50: > 100 µM (inactive)
M19-MEL
  GI50: > 100 µM (inactive)
OVCAR-4
  GI50: > 100 µM (inactive)
DLD-1
  GI50: > 100 µM (inactive)
ACHN
  GI50: > 100 µM (inactive)
CCRF-CEM
  GI50: > 100 µM (inactive)
CAKI-1
  GI50: > 100 µM (inactive)
RXF 631
  GI50: > 100 µM (inactive)
A498
  GI50: > 100 µM (inactive)
SK-MEL-2
  GI50: > 100 µM (inactive)
LOX IMVI
  GI50: > 100 µM (inactive)
SF-295
  GI50: > 100 µM (inactive)
LXFL 529
  GI50: > 100 µM (inactive)
SNB-19
  GI50: > 100 µM (inactive)
SW-620
  GI50: > 100 µM (inactive)
SK-OV-3
  GI50: > 100 µM (inactive)
NCI-H226
  GI50: > 100 µM (inactive)
SR
  GI50: > 100 µM (inactive)
SN12C
  GI50: > 100 µM (inactive)
SNB-75
  GI50: > 100 µM (inactive)
Malme-3M
  GI50: > 100 µM (inactive)
MOLT-4
  GI50: > 100 µM (inactive)
786-0
  GI50: > 100 µM (inactive)
DMS-273
  GI50: > 100 µM (inactive)
UACC-257
  GI50: > 100 µM (inactive)
HOP-62
  GI50: > 100 µM (inactive)
A549
  GI50: > 100 µM (inactive)
HCT-116
  GI50: > 100 µM (inactive)
SK-MEL-5
  GI50: > 100 µM (inactive)
NCI-H522
  GI50: > 100 µM (inactive)
OVCAR-8
  GI50: > 100 µM (inactive)
SNB-78
  GI50: > 100 µM (inactive)
HT-29
  GI50: > 100 µM (inactive)
OVCAR-3
  GI50: > 100 µM (inactive)
M14
  GI50: > 100 µM (inactive)
K562
  GI50: > 100 µM (inactive)
NCI-H460
  GI50: > 100 µM (inactive)
SK-MEL-28
  GI50: > 100 µM (inactive)
NCI-H23
  GI50: > 100 µM (inactive)
SF-539
  GI50: > 100 µM (inactive)
HCC 2998
  GI50: > 100 µM (inactive)
KM12
  GI50: > 100 µM (inactive)
RPMI-8226
  GI50: > 100 µM (inactive)
SF-268
  GI50: > 100 µM (inactive)
UACC-62
  GI50: > 100 µM (inactive)
HOP-18
  GI50: > 100 µM (inactive)
COLO 205
  GI50: > 100 µM (inactive)
IGROV-1
  GI50: > 100 µM (inactive)
DMS-114
  GI50: > 100 µM (inactive)
XF498
  GI50: > 100 µM (inactive)
TK-10
  GI50: > 100 µM (inactive)
U-251
  GI50: > 100 µM (inactive)
